Results on 54 molecules are retold here after the PolyMetriX glass transition set.

Structures are written as SMILES. ± gives the standard deviation of the reports.

In the case of `*Oc1c(F)c(F)c(Oc2c(F)c(F)c3c(c2F)C(=O)N(c2ccc(-c4ccc(N5C(=O)c6c(F)c(*)c(F)c(F)c6C5=O)cc4C(F)(F)F)c(C(F)(F)F)c2)C3=O)c(F)c1F` (repeat unit), the glass transition temperature came out at 312.00 °C.
The same measure, in the same setting: with `*Oc1ccc(Oc2ccc3c(c2)C(=O)N(c2ccc(Oc4ccc5ccccc5c4-c4c(Oc5ccc(N6C(=O)c7ccc(*)cc7C6=O)cc5C(F)(F)F)ccc5ccccc45)c(C(F)(F)F)c2)C3=O)cc1` (repeat unit) the figure was 256.00 °C; with `*Oc1ccc2c(c1)C(=O)N(c1cc(N3C(=O)c4ccc(*)cc4C3=O)cc(C(F)(F)F)c1)C2=O` (repeat unit), 274.00 °C.
Same read-out and setting: as for `*C(=O)Nc1ccc2ccccc2c1-c1c(NC(=O)c2ccc3c(c2)C(=O)N(c2ccc(Cc4ccc(N5C(=O)c6ccc(*)cc6C5=O)cc4)cc2)C3=O)ccc2ccccc12` (repeat unit), the figure is 285.40 °C.
The same measure, in the same setting: as for `*C(=O)Oc1ccc2ccccc2c1-c1c(OC(=O)c2ccc3c(c2)C(=O)N(c2ccc(Oc4ccc(N5C(=O)c6ccc(*)cc6C5=O)cc4)cc2)C3=O)ccc2ccccc12` (repeat unit), the figure is 257.00 °C.
In turn, `*Oc1ccc2ccccc2c1-c1c(Oc2ccc3c(c2)C(=O)N(c2ccc(Oc4ccc(N5C(=O)c6ccc(*)cc6C5=O)cc4)cc2)C3=O)ccc2ccccc12` (repeat unit) had a glass transition temperature of 274.00 °C.
`*C(=O)c1ccc2c(c1)C(=O)N(c1cc(N3C(=O)c4ccc(*)cc4C3=O)ccc1OCC(F)(F)C(F)(F)C(F)(F)C(F)(F)C(F)(F)C(F)(F)C(F)(F)F)C2=O` (repeat unit) registered a glass transition temperature of 223.00 °C.
On the same count and under the same terms, as for `*C(=O)c1ccc2c(c1)C(=O)N(c1cc(N3C(=O)c4ccc(*)cc4C3=O)ccc1OCC(F)(F)C(F)(F)C(F)(F)C(F)(F)C(F)(F)C(F)(F)F)C2=O` (repeat unit), the figure is 229.00 °C; as for `*C(=O)c1ccc2c(c1)C(=O)N(c1cc(N3C(=O)c4ccc(*)cc4C3=O)ccc1OCC(F)(F)C(F)(F)C(F)(F)F)C2=O` (repeat unit), 262.00 °C.
Still for that read-out and setting: with `*Oc1ccc2c(c1)C(=O)N(c1ccc(P(=O)(c3ccccc3)c3ccc(N4C(=O)c5ccc(*)cc5C4=O)cc3)cc1)C2=O` (repeat unit) the figure was 311.00 °C; with `*c1c(C)c(C)c(N2C(=O)c3cc4c(cc3C2=O)C(c2ccccc2)(C(F)(F)F)c2cc3c(cc2O4)C(=O)N(*)C3=O)c(C)c1C` (repeat unit), 394.00 °C; with `*C(=O)c1ccc2c(c1)C(=O)N(c1c(C)cc(CC)c(N3C(=O)c4ccc(*)cc4C3=O)c1CC)C2=O` (repeat unit), 385.00 °C.
The same measure, in the same setting: with `*C1=C(Cl)C(=O)N(c2ccc(Cc3ccc(N4C(=O)C(Cl)=C(Oc5c(Cl)cc(C(C)(C)c6cc(Cl)c(*)c(Cl)c6)cc5Cl)C4=O)cc3)cc2)C1=O` (repeat unit) the figure was 200.00 °C; with `*c1ccc(Cc2ccc(-n3c(=O)c4ccc5c(=O)n(*)c(=O)c5c4c3=O)c(C)c2)cc1C` (repeat unit), 354.00 °C; with `*Sc1cccc2c1C(=O)N(c1ccc(N3C(=O)c4cccc(*)c4C3=O)cc1)C2=O` (repeat unit), 330.00 °C.
`*Oc1ccc2c(c1)C(=O)N(c1ccc(Oc3c(C)cc(Oc4ccc(N5C(=O)c6ccc(*)cc6C5=O)cc4)c(C)c3C)cc1)C2=O` (repeat unit): the glass transition temperature is 261.00 °C.
Still for that read-out and setting: as for `*Oc1cccc(Oc2ccc(Oc3cccc4c3C(=O)N(c3ccc(Oc5ccc(N6C(=O)c7cccc(*)c7C6=O)cc5)cc3)C4=O)cc2)c1` (repeat unit), the figure is 239.00 °C; as for `*Oc1ccc2c(c1)C(=O)N(c1ccc(Oc3ccc(Oc4ccc(N5C(=O)c6ccc(*)cc6C5=O)cc4)cc3C(C)(C)C)cc1)C2=O` (repeat unit), 240.00 °C; as for `*Oc1cccc(Sc2ccc(Oc3ccc4c(c3)C(=O)N(c3ccc(Oc5cccc(Oc6ccc(N7C(=O)c8ccc(*)cc8C7=O)cc6)c5)cc3)C4=O)cc2)c1` (repeat unit), 219.00 °C.
On the same count and under the same terms, with `*Oc1cccc(S(=O)(=O)c2ccc(Oc3cccc4c3C(=O)N(c3ccc(Oc5cccc(Oc6ccc(N7C(=O)c8cccc(*)c8C7=O)cc6)c5)cc3)C4=O)cc2)c1` (repeat unit) the figure was 216.00 °C; with `*Oc1cccc2c1C(=O)N(c1ccc(Oc3ccc(Oc4cccc(N5C(=O)c6cccc(*)c6C5=O)c4)cc3)cc1)C2=O` (repeat unit), 263.00 °C.
Still for that read-out and setting: with `*Oc1ccc(C(c2ccc(Oc3cccc4c3C(=O)N(CCCCCCCCN3C(=O)c5cccc(*)c5C3=O)C4=O)cc2)(C(F)(F)F)C(F)(F)F)cc1` (repeat unit) the figure was 135.00 °C.

The source holds these as a separate data set.
`*CCCCCCNC(=O)CCCCCCCCC(=O)N*` (repeat unit) [Poly(hexamethylene sebacamide) ] returned a glass transition temperature of 40 ± 4.1 °C.
Still for that read-out and setting: with `*CC(*)(C#N)C(=O)OCCCCCC` (repeat unit) [Poly(hexyl cyanoacrylate)] the figure was 85.92 ± 0.1 °C; with `*CC(*)OCCCCCC` (repeat unit) [Poly(hexyl vinyl ether)], -69.58 ± 5.8 °C.
On the same count and under the same terms, as for `*CCCCCCNC(=O)CCCCCCCCCCC(=O)N*` (repeat unit) [Poly(iminohexamethyleneiminododecanedioyl)], the figure is 45.92 ± 0.1 °C; as for `*CC(*)(C)C` (repeat unit) [Poly(isobutene)], -74 ± 3.6 °C; as for `*CC(*)C(=O)OC` (repeat unit) [Poly(methyl acrylate) ], 9 ± 2 °C.
Same read-out and setting: as for `*CC(*)OC` (repeat unit) [Poly(methyl vinyl ether)], the figure is -26.97 ± 3.8 °C; as for `*CC(*)C(=O)OCCCCCCCCC` (repeat unit) [Poly(n-nonyl acrylate) ], -60 ± 17 °C; as for `*CC(*)C(=O)OCCCCCCCC` (repeat unit) [Poly(n-octyl acrylate) ], -65 ± 0.6 °C.
As for `*CC(*)C(=O)OCCCCCCCCCCCCCCCCCC` (repeat unit) [Poly(octadecyl acrylate)], the glass transition temperature is -2.33 ± 57 °C.
Take `*CC(*)c1ccc(C(=O)OC)cc1` (repeat unit) [Poly(p-methoxycarbonyl styrene) ]: the glass transition temperature came to 113 ± 5.6 °C.
On the same count and under the same terms, with `*OC(C)COC(*)=O` (repeat unit) [Poly(propylene carbonate)] the figure was 35.73 ± 1.6 °C; with `*CC(*)CCC` (repeat unit) [Poly(propylethylene)], -35 ± 46 °C; with `*c1ccc(*)[nH]1` (repeat unit) [Poly(pyrrole)], 86.42 ± 23 °C.
Molecule `*CC(*)(C)C(=O)OC(C)CC` (repeat unit) [Poly(sec-butyl methacrylate)] gave a glass transition temperature of 57 ± 2.6 °C.
Same read-out and setting: with `*CCCCOC(=O)CCCCC(=O)O*` (repeat unit) [Poly(tetramethylene adipate) ] the figure was -68 ± 2.1 °C; with `*CCCOC(=O)c1ccc(C(=O)O*)cc1` (repeat unit) [Poly(trimethylene terephthalate)], 52.92 ± 1.3 °C.
On the same count and under the same terms, as for `*CC(*)F` (repeat unit) [Poly(vinyl fluoride)], the figure is 33.92 ± 10 °C.
`*CC(*)OC(C)C` (repeat unit) [Poly(vinyl isopropyl ether) ]: the glass transition temperature was -4 ± 2.3 °C.
On the same count and under the same terms, as for `*CC(*)SC` (repeat unit) [Poly(vinyl methyl sulfide) ], the figure is -1 ± 1.2 °C; as for `*CC(*)OCCCCCCCCCC` (repeat unit) [Poly(vinyl n-decyl ether) ], -76 ± 8.5 °C; as for `*CC(*)OCCCCC` (repeat unit) [Poly(vinyl n-pentyl ether)], -66 ± 0.6 °C.
`*CC(*)(Cl)Cl` (repeat unit) [Poly(vinylidene chloride)] displayed a glass transition temperature of -9.83 ± 9.4 °C.
`*Oc1ccc(C(c2ccc(OC(*)=O)cc2)C(C)C)cc1` (repeat unit) [Poly[1,1-(2-methyl propane) bis(4-phenyl)carbonate]] gave a glass transition temperature of 149 ± 0.6 °C.
Same read-out and setting: as for `*Oc1ccc(C(C)(CCC)c2ccc(OC(*)=O)cc2)cc1` (repeat unit) [Poly[2,2-pentane bis(4-phenyl)carbonate]], the figure is 137 ± 0.6 °C; as for `*Oc1ccc(C(CCC)(CCC)c2ccc(OC(*)=O)cc2)cc1` (repeat unit) [Poly[4,4-heptane bis(4-phenyl)carbonate]], 148 ± 0.6 °C; as for `*CC(*)C(F)(F)C(F)(F)F` (repeat unit) [Poly[(pentafluoroethyl)ethylene] ], 41 ± 0.6 °C.
The same measure, in the same setting: as for `*CCCCCCCCO*` (repeat unit) [Polyoxyoctamethylene ], the figure is -70 ± 34 °C; as for `*CC(*)c1ccccc1` (repeat unit) [atactic polystyrene], 95.96 ± 28 °C; as for `*CC(*)(C)C(=O)OCCCCCC` (repeat unit) [poly(hexyl methacrylate)], -6.6 ± 7.2 °C.
On the same count and under the same terms, with `*CC(*)(C)C(=O)OC` (repeat unit) [poly(methyl methacrylate)] the figure was 108.92 ± 15 °C; with `*CCCCCCCCCCCCCCC(=O)O*` (repeat unit) [poly(pentadecalactone)], -24.62 ± 3.6 °C.
